Results taken from patent publication US20070078143A1, “Method for preparing Ziprasidone monohydrochloride-hydrate” (Wockhardt Limited, priority 2003, published 2007).
Structures can show the parent of a compound that is named as a salt.

Assays:
[1] = Moisture re-absorption of the dried (anhydrous) salt on exposure to humidity; format: physicochemical; conditions: after prolonged drying to anhydrous (moisture content up to 0.7% by weight); exposed at 60% relative humidity
Description: Anhydrous Ziprasidone monohydrochloride is disclosed in U.S. Pat. No. 5,312,925. The Ziprasidone monohydrochloride-hydrate of the present invention can be made anhydrous having moisture content up to 0.7% by weight, after prolonged drying. It has been observed that the compound re-absorbs moisture up to 6% when it is exposed at 60% relative humidity.

[2] = Solubility in common organic solvents; format: physicochemical
Protocol: Therefore, another objective of the present invention is to find a suitable solvent or solvent mixture to purify crude Ziprasidone base to obtain the required purity with minimal loss of material. The crude Ziprasidone obtained from step (a) is dissolved in a mixture of tetrahydrofuran and N,N-dimethylformamide (7:3, v/v) with activated charcoal and heated to clarify the solution. The solution obtained is filtered, washed with a cold solvent mixture of THF and DMF and dried. The dried Ziprasidone is obtained in 99% HPLC purity.

moisture re-absorbed [1] | solubility in most of the common organic solvents [2] | SMILES
up to 6% | – | O=C1Cc2cc(CCN3CCN(c4nsc5ccccc45)CC3)c(Cl)cc2N1 [Ziprasidone monohydrochloride-hydrate, 5-(2-(4-1,2-benzisothiazol-3-yl)piperazinyl)ethyl)-6-chloro-1,3-dihydro-2H-indol-2-one Monohydrochloride-hydrate]
– | poor solubility | O=C1Cc2cc(CCN3CCN(c4nsc5ccccc45)CC3)c(Cl)cc2N1 [Ziprasidone, 5-(2-(4-(1,2-benzisothiazol-3-yl)-1-piperazinyl)ethyl)-6-chloro-1,3-dihydro-2H-indole-2-one]
